Experimental data reported in patent US4162305A, “Antibiotic XK-99 and process for production thereof” (Abbott Laboratories, priority 1977, dated 1979).
Values after ≈ are worked out from the molar mass of the structure shown. Where two headings read alike, the source gives them in different places. Numbered stars: 1 amine (or outer) side, 2 acyl side, 3 side chain; on linkers, the order of the positions; unused ones are H or OH. Bridge positions count the residues as written; N and C are the ends. Square brackets hold non-standard residues; d marks the D form. Peptide text beside a SMILES is read from it. I, II: the chains in the order shown. Actinocin(9to1) = Cc1c2oc3c(C)ccc(C(=O)[*:1])c3nc-2c(C(=O)[*:2])c(N)c1=O; NMeV = CN[C@H](C(=O)O)C(C)C; Sar = CNCC(=O)O

What was measured:
Staphylococcus aureus = assay: Comparative antibacterial activity (MIC), agar dilution method, measured simultaneously; assay type: cell-based; conditions: for Antibacterial activity [C], ratio of [A] to [B]: MIC Staphylococcus aureus / MIC Bacillus subtilis; for Antibacterial activity [A] (minimum inhibition concentration, MIC) / MIC: Staphylococcus aureus; for MIC: read-out: Antibacterial activity [A] (minimum inhibition concentration, MIC)
Method: (§1) A comparative study of XK-99 with these antibiotics was conducted according to several procedures.
(§2) ^1 Antibacterial activities (minimum inhibition concentration, MIC,
(§3) γ/ml) of the individual antibiotics measured simultaneously
according to agar dilution method against [A] Staphylococcus aureus and […]

Bacillus subtilis = assay: as above; assay type: cell-based; conditions: for MIC: read-out: Antibacterial activity [B] (minimum inhibition concentration, MIC)
Method: as §1, §2, §3
according to agar dilution method against [A] Staphylococcus aureus and
[B]Bacillus subtilis, and [C] ratio of [A] to
^2 Rf values of the individual antibiotics on paper chromatography, […]

[1] = agar dilution method, measured simultaneously

Row | Compound | Antibacterial activity [C], ratio of [A] to [B] (Staphylococcus aureus) | Antibacterial activity [A] (minimum inhibition concentration, MIC) (Staphylococcus aureus; [1]) | Antibacterial activity [B] (minimum inhibition concentration, MIC) (Bacillus subtilis; [1]) | MIC (Staphylococcus aureus; [1]) | MIC (Bacillus subtilis; [1]) | MIC (Staphylococcus aureus) | MIC (Bacillus subtilis)
1 | Acrasinomycin | 4 | 0.68 µg/mL | 0.17 µg/mL |  |  |  | 
2 | CO[C@H]1/C=C/O[C@@]2(C)Oc3c(C)c(O)c4c(c3C2=O)C(=O)C=C(NC(=O)/C(C)=C\C=C\[C@H](C)[C@H](O)[C@@H](C)[C@@H](O)[C@@H](C)[C@H](OC(C)=O)[C@@H]1C)C4=O [Rifamycin S] | < 0.05 | < 0.0045 µg/mL | 0.09 µg/mL |  |  |  | 
3 | COc1cccc2c1C(=O)c1c(O)c3c(c(O)c1C2=O)C[C@@](O)(C(=O)CO)C[C@@H]3O[C@H]1C[C@H](N)[C@H](O)[C@H](C)O1 [Adriamycin] | 8 |  |  | 5.6 µg/mL (≈ 10.3 µM) | 0.7 µg/mL (≈ 1.29 µM) |  | 
4 | COc1cccc2c1C(=O)c1c(O)c3c(c(O)c1C2=O)C[C@@](O)(C(C)=O)C[C@@H]3O[C@H]1C[C@H](N)[C@H](O)[C@H](C)O1 [Daunomycin] | 4 |  |  | 2.8 µg/mL (≈ 5.31 µM) | 0.7 µg/mL (≈ 1.33 µM) |  | 
5 | Halomicin B | < 0.05 | < 0.0045 µg/mL | 0.09 µg/mL |  |  |  | 
6 | Cc1c2oc3c(C)ccc(C(=O)N[C@@H]4C(=O)N[C@H](C(C)C)C(=O)N5CCC[C@H]5C(=O)N(C)CC(=O)N(C)[C@@H](C(C)C)C(=O)O[C@@H]4C)c3nc-2c(C(=O)N[C@@H]2C(=O)N[C@H](C(C)C)C(=O)N3CCC[C@H]3C(=O)N(C)CC(=O)N(C)[C@@H](C(C)C)C(=O)O[C@@H]2C)c(N)c1=O [Actinomycin D] (I: T[dV]P[Sar][NMeV] / II: T[dV]P[Sar][NMeV]; ester I:1-I:C, II:1-II:C; linker I:N-II:N via Actinocin(9to1)) | 4 |  |  |  |  | 0.084 µg/mL (≈ 0.0669 µM) | 0.021 µg/mL (≈ 0.0167 µM)
